Molecular target: GST-tagged truncated human mutant G2019S LRRK2 (Homo sapiens (Human), UniProt Q5S007, G2019S)
Assay: LRRK2 G2019S Km ATP LanthaScreen assay
Format: biochemical
Settings: G2019S LRRK2, 134 μM ATP (Km ATP), LRRKtide substrate
Outline: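 TR-FRET assay with GST-tagged truncated human G2019S LRRK2 (1.25 nM), preincubated with compound 15 min, then reacted with fluorescein-LRRKtide and 134 μM ATP (Km) in Tris pH 8.5 buffer, 90 min, ambient temperature. Tb-anti-phospho-LRRKtide detection, 520/495 nm ratio; IC50 by 4-parameter logistic fit, top concentration 9.99 μM in DMSO, 10 points.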

Sequence of GST-tagged truncated human mutant G2019S LRRK2 (Q5S007 970-2527 G2019S): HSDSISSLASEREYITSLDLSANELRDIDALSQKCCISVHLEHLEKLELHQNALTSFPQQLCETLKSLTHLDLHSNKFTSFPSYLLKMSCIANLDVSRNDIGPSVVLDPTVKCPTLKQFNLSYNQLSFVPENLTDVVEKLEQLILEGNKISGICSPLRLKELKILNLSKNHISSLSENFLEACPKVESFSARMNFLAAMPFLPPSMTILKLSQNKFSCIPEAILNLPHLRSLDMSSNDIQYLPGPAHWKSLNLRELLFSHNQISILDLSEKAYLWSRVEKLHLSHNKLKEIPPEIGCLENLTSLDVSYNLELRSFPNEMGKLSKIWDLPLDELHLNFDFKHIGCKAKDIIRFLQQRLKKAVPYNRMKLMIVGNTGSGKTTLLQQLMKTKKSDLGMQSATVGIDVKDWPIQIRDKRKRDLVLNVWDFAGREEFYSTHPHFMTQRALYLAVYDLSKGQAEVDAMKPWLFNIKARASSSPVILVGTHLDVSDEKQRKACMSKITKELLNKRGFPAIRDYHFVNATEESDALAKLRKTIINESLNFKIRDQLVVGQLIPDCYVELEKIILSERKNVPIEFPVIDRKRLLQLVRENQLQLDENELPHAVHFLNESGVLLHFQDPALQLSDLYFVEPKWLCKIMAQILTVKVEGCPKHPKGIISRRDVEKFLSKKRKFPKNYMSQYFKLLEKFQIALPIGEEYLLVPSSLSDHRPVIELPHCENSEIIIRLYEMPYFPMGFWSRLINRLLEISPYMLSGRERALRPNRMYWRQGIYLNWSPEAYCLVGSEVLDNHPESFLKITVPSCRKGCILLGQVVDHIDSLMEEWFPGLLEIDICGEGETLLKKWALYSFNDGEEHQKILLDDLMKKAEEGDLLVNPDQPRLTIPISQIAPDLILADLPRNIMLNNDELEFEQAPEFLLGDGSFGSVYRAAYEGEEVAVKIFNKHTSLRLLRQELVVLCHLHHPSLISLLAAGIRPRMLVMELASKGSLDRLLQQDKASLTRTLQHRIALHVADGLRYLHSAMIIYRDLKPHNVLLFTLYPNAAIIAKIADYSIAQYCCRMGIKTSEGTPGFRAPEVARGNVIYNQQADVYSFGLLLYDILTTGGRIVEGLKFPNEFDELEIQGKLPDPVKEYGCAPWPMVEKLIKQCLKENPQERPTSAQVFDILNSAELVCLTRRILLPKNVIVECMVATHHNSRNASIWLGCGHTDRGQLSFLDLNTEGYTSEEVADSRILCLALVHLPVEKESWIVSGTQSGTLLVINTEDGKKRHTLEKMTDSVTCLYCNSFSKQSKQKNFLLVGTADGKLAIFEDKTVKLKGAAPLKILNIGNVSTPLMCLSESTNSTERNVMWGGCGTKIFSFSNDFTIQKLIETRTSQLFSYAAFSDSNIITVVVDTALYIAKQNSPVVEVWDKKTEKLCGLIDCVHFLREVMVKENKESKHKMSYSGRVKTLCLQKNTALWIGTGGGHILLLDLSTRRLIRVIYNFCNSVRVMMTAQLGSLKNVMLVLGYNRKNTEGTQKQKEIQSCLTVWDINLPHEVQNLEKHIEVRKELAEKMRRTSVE

Compound | LRRK2 pIC50
Cc1nn(C2CCC2)c2c1OC[C@H]1CN(CCO1)c1nc(ncc1C(F)(F)F)N2 (single isomer, unassigned) [Ex-21.1, (6R)- or (6S)-1-cyclobutyl-3-methyl-12-(trifluoromethyl)-1,5,6,8,9,16-hexahydro-11,15-(azeno)-6,10-methanopyrazolo[4,3-e][1,4]dioxa[7,9,13]triazacyclopentadecine] | 6.09
CCn1nc(C)c2c1OCC1(CC1)CNc1nc(ncc1C(F)(F)F)N2 [Ex-1.3, 1′-ethyl-3′-methyl-8′-(trifluoromethyl)-1′,4′,10′,11′-tetrahydro-13′H-spiro[cyclopropane-1,12′-[5,9](azeno)pyrazolo[3,4-b][1]oxa[4,6,10]triazacyclotridecine]] | 9.07
Cc1nn(C(C)C)c2c1OC[C@@H]1COC[C@H]1Nc1nc(ncc1C(F)(F)F)N2 [Ex-2.42, (10aS,13aS)-3-isopropyl-1-methyl-8-(trifluoromethyl)-3,4,10a,11,13a,14-hexahydro-10H,13H-5,9-(azeno)furo[3,4-k]pyrazolo[4,3-b][1]oxa[4,6,10]triazacyclotridecine] | 9.93
Cc1c2c(nn1C1CC1)Nc1ncc(C(F)(F)F)c(n1)N[C@H](C)CCO2 (single isomer, unassigned) [Ex-17.2, (R)- or (S)-2-cyclopropyl-3,7-dimethyl-10-(trifluoromethyl)-2,5,6,7,8,14-hexahydro-9,13-(azeno)pyrazolo[4,3-b][1]oxa[4,6,10]triazacyclotridecine] | 8.24
Cc1nn(C)c2c1OCC1CC[C@H]1Nc1nc(ncc1C(F)(F)F)N2 (stereo partly drawn) [Ex-2.11, (10aR,12aS)- or (10aS,12aR)-1,3-dimethyl-8-(trifluoromethyl)-3,4,10,10a,11,12,12a,13-octahydro-5,9-(azeno)cyclobuta[k]pyrazolo[4,3-b][1]oxa[4,6,10]triazacyclotridecine] | >10.09
COC1CCC1n1nc(C)c2c1Nc1ncc(C(F)(F)F)c(n1)NC1COCC1CO2 [Ex-2.41, (10aS,13aS)-3-((1R,2R)-(10aS,13aS)-3-((1S,2R)-(10aS,13aS)-3-((1R,2S)-(10aS,13aS)-3-((1R,2R)-(10aR,13aR)-3-((1S,2R)-(10aR,13aR)-3-((1R,2S)-2-methoxycyclobutyl)-1-methyl-8-(trifluoromethyl)-3,4,10a,11,13a,14-hexahydro-10H,13H-5,9-(azeno)furo[3,4-k]pyrazolo[4,3-b][1]oxa[4,6,10]triazacyclotridecine] | 6.51
Cc1nn(C2CC2)c2c1OC[C@@H]1COC[C@H]1Nc1nc(ncc1Cl)N2 [Ex-2.55, (10aS,13aS)-8-chloro-3-cyclopropyl-1-methyl-3,4,10a,11,13a,14-hexahydro-10H,13H-5,9-(azeno)furo[3,4-k]pyrazolo[4,3-b][1]oxa[4,6,10]triazacyclotridecine] | 8.94
CC1CCOc2c(C3CC3)nn(C)c2Nc2ncc(C(F)(F)F)c(n2)N1 (single isomer, unassigned) [Ex-2.18, (R)- or (S)-3-cyclopropyl-1,7-dimethyl-10-(trifluoromethyl)-1,5,6,7,8,14-hexahydro-9,13-(azeno)pyrazolo[4,3-b][1]oxa[4,6,10]triazacyclotridecine] | 6.65
CC(C)(C#N)c1nn(C2CCC2)c2c1OC[C@H]1CC[C@@H]1Nc1nc(ncc1C(F)(F)F)N2 [Ex-2.53, 2-((10aS,12aS)- or 2-((10aR,12aR)-3-cyclobutyl-8-(trifluoromethyl)-3,4,10,10a,11,12,12a,13-octahydro-5,9-(azeno)cyclobuta[k]pyrazolo[4,3-b][1]oxa[4,6,10]triazacyclotridecin-1-yl)-2-methylpropanenitrile] | 9.64
Cc1nn(C(C)C)c2c1OCCC(C)Nc1nc(ncc1C(F)(F)F)N2 (single isomer, unassigned) [Ex-2.8, (R)- or (S)-1-isopropyl-3,7-dimethyl-10-(trifluoromethyl)-1,5,6,7,8,14-hexahydro-9,13-(azeno)pyrazolo[4,3-b][1]oxa[4,6,10]triazacyclotridecine] | 9.48
CC(C)(C#N)c1nn(C2CCC2)c2c1OC[C@H]1CC[C@@H]1Nc1nc(ncc1C(F)(F)F)N2 [Ex-2.52, 2-((10aS,12aS)- or 2-((10aR,12aR)-3-cyclobutyl-8-(trifluoromethyl)-3,4,10,10a,11,12,12a,13-octahydro-5,9-(azeno)cyclobuta[k]pyrazolo[4,3-b][1]oxa[4,6,10]triazacyclotridecin-1-yl)-2-methylpropanenitrile] | 5.96
COc1cccc2c1Nc1ncc(Cl)c(n1)N[C@@H]1COC[C@H]1CO2 [Ex-15.2, (3aS,16aS)-6-chloro-11-methoxy-3a,4,16,16a-tetrahydro-1H,3H,10H-5,9-(azeno)benzo[b]furo[3,4-k][1]oxa[4,6,10]triazacyclotridecine] | 9.65
Cc1nn(C)c2c1OCC1(CC1)C(C)Nc1nc(ncc1C(F)(F)F)N2 (single isomer, unassigned) [Ex-2.15, (R)- or (S)-1′,3′,7′-trimethyl-10′-(trifluoromethyl)-1′,7′,8′,14′-tetrahydro-5′H-spiro[cyclopropane-1,6′-[9,13](azeno)pyrazolo[4,3-b][1]oxa[4,6,10]triazacyclotridecine]] | 7.44
Cc1nn(C2CCC2)c2c1OC[C@@H]1CN(CCO1)c1nc(ncc1C(F)(F)F)N2 (single isomer, unassigned) [Ex-21.2, (6R)- or (6S)-1-cyclobutyl-3-methyl-12-(trifluoromethyl)-1,5,6,8,9,16-hexahydro-11,15-(azeno)-6,10-methanopyrazolo[4,3-e][1,4]dioxa[7,9,13]triazacyclopentadecine] | 8.07
CC(C)c1nn(C(C)(C)CO)c2c1Nc1ncc(C(F)(F)F)c(n1)N[C@@H]1COC[C@H]1CO2 [Ex-7.5, 2-((10aS,13aS)-3-isopropyl-8-(trifluoromethyl)-10a,11,13a,14-tetrahydro-10H,13H-5,9-(azeno)furo[3,4-k]pyrazolo[3,4-b][1]oxa[4,6,10]triazacyclotridecin-1(4H)-yl)-2-methylpropan-1-ol] | >10.09
CC1CCOc2c(C(C)(C)C#N)nn(C3CCC3)c2Nc2ncc(C(F)(F)F)c(n2)N1 (single isomer, unassigned) [Ex-2.30, (R)- or (S)-butyl-7-methyl-10-(trifluoromethyl)-1,5,6,7,8,14-hexahydro-9,13-(azeno)pyrazolo[4,3-b][1]oxa[4,6,10]triazacyclotridecin-3-yl)-2-methylpropanenitrile] | 10.03
Cc1nn(C2CCC2)c2c1OC[C@@H]1COC[C@H]1Nc1nc(ncc1C(F)(F)F)N2 [Ex-2.28, (3aR,15aR)- or (3aS,15aS)-11-cyclobutyl-13-methyl-6-(trifluoromethyl)-2,3,3a,4,10,11,15,15a-octahydro-5,9-(azeno)furo[3,2-k]pyrazolo[4,3-b][1]oxa[4,6,10]triazacyclotridecine] | 9.64
Cc1nn(C2CCC2)c2c1OC[C@@H]1CC[C@H]1Nc1nc(ncc1C(F)(F)F)N2 [Ex-2.3, (10aR,12aR)- or (10aS,12aS)-3-Cyclobutyl-1-methyl-8-(trifluoromethyl)-3,4,10,10a,11,12,12a,13-octahydro-5,9-(azeno)cyclobuta[k]pyrazolo[4,3-b][1]oxa[4,6,10]triazacyclotridecine] | 9.12
CC1CCOc2c(C(C)(C)C#N)nn(C3CCC3)c2Nc2ncc(C(F)(F)F)c(n2)N1 (single isomer, unassigned) [Ex-2.29, (R)- or (S)-butyl-7-methyl-10-(trifluoromethyl)-1,5,6,7,8,14-hexahydro-9,13-(azeno)pyrazolo[4,3-b][1]oxa[4,6,10]triazacyclotridecin-3-yl)-2-methylpropanenitrile] | 5.70
C=CCn1nc(C)c2c1Nc1ncc(C(F)(F)F)c(n1)N[C@@H]1COC[C@H]1CO2 [Ex-5.3, (10aS,13aS)-3-allyl-1-methyl-8-(trifluoromethyl)-3,4,10a,11,13a,14-hexahydro-10H,13H-5,9-(azeno)furo[3,4-k]pyrazolo[4,3-b][1]oxa[4,6,10]triazacyclotridecine] | 7.30
CC(C)n1nc(C2CC2)c2c1Nc1ncc(C(F)(F)F)c(n1)N[C@@H]1COC[C@H]1CO2 [Ex-2.57, (10aS,13aS)-1-cyclopropyl-3-isopropyl-8-(trifluoromethyl)-3,4,10a,11,13a,14-hexahydro-10H,13H-5,9-(azeno)furo[3,4-k]pyrazolo[4,3-b][1]oxa[4,6,10]triazacyclotridecine] | 9.98
Cc1nn(C)c2c1OC[C@@H]1CCC(C1)Nc1nc(ncc1C(F)(F)F)N2 [Ex-2.87, (5^1S,5^3R)-1^1,1^3-dimethyl-3^5-(trifluoromethyl)-1^1H-7-oxa-2,4-diaza-3(2,4)-pyrimidina-1(5,4)-pyrazola-5(1,3)-cyclopentanacycloheptaphane] | 6.84
Cc1nn(C2CCC2)c2c1OC1COC[C@H]1CNc1nc(ncc1C(F)(F)F)N2 (stereo partly drawn) [Ex-2.80, (11aR,14aR)-3-cyclobutyl-1-methyl-8-(trifluoromethyl)-3,4,10,11,11a,12,14,14a-octahydro-5,9-(azeno)furo[3,4-1]pyrazolo [4,3-b][1]oxa[4,6,10]triazacyclotridecine (11aS,14aS)-3-cyclobutyl-1-methyl-8-(trifluoromethyl)-3,4,10,11,11a,12,14,14a-octahydro-5,9-(azeno)furo[3,4-1]pyrazolo[4,3-b][1]oxa[4,6,10]triazacyclotridecine] | 7.57
CC(C)n1nc(C(C)(C)C#N)c2c1Nc1ncc(C(F)(F)F)c(n1)N[C@@H]1COC[C@H]1CO2 [Ex-2.43, 2-((10aS,13aS)-3-isopropyl-8-(trifluoromethyl)-3,4,10a,11,13a,14-hexahydro-10H,13H-5,9-(azeno)furo[3,4-k]pyrazolo[4,3-b][1]oxa[4,6,10]triazacyclotridecin-1-yl)-2-methylpropanenitrile] | >10.09
